# Earlier results as cited in patent US10463642B2, “Methods of treating heart failure diseases using prodrugs of methyl hydrogen fumarate” (priority 2016, dated 2019).
# Counter-ions that a name gives are not always drawn. Like-named read-outs stand apart in the source and are kept apart here.
# Tests used:
# [1] = healthy subjects, steady state
# [2] = tested on: central nervous system (CNS) inflammation; settings: rat EAE
# [3] = tested on: central nervous system (CNS) inflammation; settings: murine EAE
Structure (SMILES),dose comparable to 240 mg DMF (Tecfidera) by comparing plasma levels of MHF [1],CNS inflammation in EAE [2],CNS inflammation in EAE [3]
"CCN(CC)C(=O)COC(=O)/C=C/C(=O)OC [XP23829, (N,N-diethylcarbamoyl)methyl methyl (2E)but-2-ene-1,4-dioate]",400 mg,,
"COC(=O)/C=C/C(=O)OC [DMF, Dimethyl fumarate]",,inhibit,inhibit
